Experimental data as given in ChEMBL document CHEMBL4257083, “Novel cytochrome p450 inhibitors and their method of use” (2016).

What was measured:
[1] = biological target: T1, Steroid 21-hydroxylase (Homo sapiens, UniProt P08686); test: Inhibition of recombinant CYP21 (unknown origin) expressed in human AD293 cells using 17alpha-hydroxyprogesterone as substrate pretreated for 60 mins followed by substrate addition and measured after 45 mins by LC/MS analysis; type: cell-based
T1 sequence (P08686 whole entry): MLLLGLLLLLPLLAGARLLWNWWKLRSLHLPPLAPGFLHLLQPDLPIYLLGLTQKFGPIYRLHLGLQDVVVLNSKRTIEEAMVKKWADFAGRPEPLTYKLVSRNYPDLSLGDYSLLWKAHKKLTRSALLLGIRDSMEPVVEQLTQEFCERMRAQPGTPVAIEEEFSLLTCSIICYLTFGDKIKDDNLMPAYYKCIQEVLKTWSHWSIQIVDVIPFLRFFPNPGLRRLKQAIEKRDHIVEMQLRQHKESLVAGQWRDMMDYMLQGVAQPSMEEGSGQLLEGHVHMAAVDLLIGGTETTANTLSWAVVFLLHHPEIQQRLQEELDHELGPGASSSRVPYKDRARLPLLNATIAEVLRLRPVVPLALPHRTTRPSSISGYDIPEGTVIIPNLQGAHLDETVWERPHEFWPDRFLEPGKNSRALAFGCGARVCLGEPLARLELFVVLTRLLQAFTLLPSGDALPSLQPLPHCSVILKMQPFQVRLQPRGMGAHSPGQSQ

[2] = biological target: T2, Steroid 17-alpha-hydroxylase/17,20 lyase (Homo sapiens, UniProt P05093); test: Inhibition of recombinant CYP17 (unknown origin) expressed in human AD293 cells using 21[3H]-17alpha-hydroxyl-pregnenolone as substrate pretreated for 60 mins followed by substrate addition and measured after 4 hrs by Topcount method; type: cell-based
T2 sequence (P05093 whole entry): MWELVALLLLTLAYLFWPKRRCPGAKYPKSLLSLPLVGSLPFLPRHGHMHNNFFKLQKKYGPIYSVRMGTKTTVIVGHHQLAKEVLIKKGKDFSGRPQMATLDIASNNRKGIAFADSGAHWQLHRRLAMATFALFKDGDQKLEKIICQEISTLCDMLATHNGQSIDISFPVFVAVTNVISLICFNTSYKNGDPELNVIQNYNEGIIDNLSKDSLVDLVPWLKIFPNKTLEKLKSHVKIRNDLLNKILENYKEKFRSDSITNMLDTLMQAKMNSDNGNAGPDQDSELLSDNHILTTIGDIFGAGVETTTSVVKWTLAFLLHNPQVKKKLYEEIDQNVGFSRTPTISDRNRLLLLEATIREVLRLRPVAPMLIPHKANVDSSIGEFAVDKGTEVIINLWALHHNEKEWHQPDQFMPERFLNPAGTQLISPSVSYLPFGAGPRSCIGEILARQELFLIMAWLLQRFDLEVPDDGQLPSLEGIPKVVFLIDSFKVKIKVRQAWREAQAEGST

[3] = biological target: T3, Cytochrome P450 11B1, mitochondrial (Homo sapiens, UniProt P15538); test: Inhibition of recombinant CYP11B1 (unknown origin) expressed in human AD293 cells using 11-deoxycortisol as substrate pretreated for 60 mins followed by substrate addition and measured after 12 hrs by LC/MS analysis; type: cell-based
T3 sequence (P15538 whole entry): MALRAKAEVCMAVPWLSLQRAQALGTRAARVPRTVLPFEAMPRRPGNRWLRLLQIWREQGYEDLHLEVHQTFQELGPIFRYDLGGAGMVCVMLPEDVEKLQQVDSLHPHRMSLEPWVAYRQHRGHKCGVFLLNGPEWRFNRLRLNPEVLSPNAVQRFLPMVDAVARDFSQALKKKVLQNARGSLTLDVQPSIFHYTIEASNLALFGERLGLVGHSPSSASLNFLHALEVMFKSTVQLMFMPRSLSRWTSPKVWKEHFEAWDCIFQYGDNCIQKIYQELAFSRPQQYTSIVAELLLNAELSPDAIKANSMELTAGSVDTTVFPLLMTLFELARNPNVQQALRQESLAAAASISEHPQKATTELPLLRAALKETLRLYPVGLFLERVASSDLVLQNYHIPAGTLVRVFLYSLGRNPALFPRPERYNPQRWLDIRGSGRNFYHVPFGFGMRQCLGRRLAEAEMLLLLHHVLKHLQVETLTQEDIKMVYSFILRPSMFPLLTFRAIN

[4] = Oral bioavailability in guinea pig at 10 mg/kg; type: ADME, organism-based, Cavia porcellus; conditions: in vivo
[5] = Tmax in guinea pig at 10 mg/kg, po; type: ADME, organism-based, Cavia porcellus; conditions: in vivo

IC50 [1] [nM]	IC50 [2] [nM]	IC50 [3] [nM]	bioavailability [4] [%]	Tmax [5] [h]	F [4] [%]	Compound
≥ 10000	86	73	–	–	–	N#CCS(=O)(=O)N1CCN(c2ccc(/C=C/c3cc(F)cc(Cn4ccnc4)c3)cc2)CC1
≥ 10000	58	49	–	–	–	CS(=O)(=O)N1CCN(c2ccc(/C=C/c3cc(F)cc(Cn4ccnc4)c3)cc2)CC1
840	5	450	–	–	–	CS(=O)(=O)N1CCN(c2ccc(/C=C/c3cc(Cl)cc(-c4ccncc4)c3)cc2)CC1
–	–	–	22.3	5.33	–	CCS(=O)(=O)N1CCN(c2ccc(/C=C/c3cc(F)cc(-c4ccncc4)c3)cc2)CC1
2200	180	24	–	–	–	CS(=O)(=O)N1CCN(c2ccc(/C=C/c3cc(Cl)cc(Cn4ccnc4)c3)cc2)CC1
740	5	200	–	–	–	CS(=O)(=O)N1CCN(c2ccc(/C=C/c3cc(F)cc(-c4ccncc4)c3)cc2)CC1
≥ 10000	1200	1400	–	–	–	N=C(N)N1CCN(c2ccc(/C=C/c3cc(F)cc(Cn4ccnc4)c3)cc2)CC1
1200	5	3500	–	–	–	Clc1cc(/C=C/c2ccc(N3CCN(C4=NCCO4)CC3)cc2)cc(-c2ccncc2)c1
–	–	–	–	8	–	O=S(=O)(C1CC1)N1CCN(c2ccc(/C=C/c3cc(F)cc(-c4ccncc4)c3)cc2)CC1
≥ 10000	6.2	7	–	–	–	O=S(=O)(c1c[nH]cn1)N1CCN(c2ccc(/C=C/c3cc(Cl)cc(Cn4ccnc4)c3)cc2)CC1
565	5	58	–	–	–	CC(C)S(=O)(=O)N1CCN(c2ccc(/C=C/c3cc(Cl)cc(-c4ccncc4)c3)cc2)CC1
700	39	5	–	–	–	CC(C)S(=O)(=O)N1CCN(c2ccc(/C=C/c3cc(F)cc(Cn4ccnc4)c3)cc2)CC1
340	–	22	–	–	–	O=S(=O)(C1CC1)N1CCN(c2ccc(/C=C/c3cc(Cl)cc(Cn4ccnc4)c3)cc2)CC1
1000	42	17	–	–	–	Fc1cc(/C=C/c2ccc(N3CCN(C4=NCCCO4)CC3)cc2)cc(Cn2ccnc2)c1
≥ 10000	2500	1300	–	–	–	N=C(N)N1CCN(c2ccc(/C=C/c3cc(Cl)cc(Cn4ccnc4)c3)cc2)CC1
≥ 10000	18	3600	–	–	–	N=C(N)N1CCN(c2ccc(/C=C/c3cc(F)cc(-c4ccncc4)c3)cc2)CC1
–	–	–	22.1	3.33	–	O=S(=O)(N1CCN(c2ccc(/C=C/c3cc(F)cc(-c4ccncc4)c3)cc2)CC1)C(F)(F)F
540	24	–	–	–	–	CCS(=O)(=O)N1CCN(c2ccc(/C=C/c3cc(Cl)cc(Cn4ccnc4)c3)cc2)CC1

IC50 [1] [nM]	IC50 [2] [nM]	IC50 [3] [nM]	bioavailability [4] [%]	Tmax [5] [h]	F [4] [%]	Compound
416	5	51	–	–	–	O=S(=O)(C1CC1)N1CCN(c2ccc(/C=C/c3cc(Cl)cc(-c4ccncc4)c3)cc2)CC1
3500	100	130	–	–	–	Clc1cc(/C=C/c2ccc(N3CCN(C4=NCCO4)CC3)cc2)cc(Cn2ccnc2)c1
≥ 10000	117	130	–	–	–	Fc1cc(/C=C/c2ccc(N3CCN(C4=NCCO4)CC3)cc2)cc(Cn2ccnc2)c1
1200	5	1800	–	–	–	Fc1cc(/C=C/c2ccc(N3CCN(C4=NCCO4)CC3)cc2)cc(-c2ccncc2)c1
–	42	–	–	–	–	CC(=O)N1CCN(c2ccc(/C=C/c3cc(Cl)cc(Cn4ccnc4)c3)cc2)CC1
430	4.6 to 5	1200	–	3	184.21	CC(=O)N1CCN(c2ccc(/C=C/c3cc(F)cc(-c4ccncc4)c3)cc2)CC1
≥ 10000	–	10000	–	–	–	N=C(N)N1CCN(c2ccc(/C=C/c3cc(Cl)cc(-c4ccncc4)c3)cc2)CC1
85	38	240	–	–	–	CC(C)S(=O)(=O)N1CCN(c2ccc(/C=C/c3cc(Cl)cc(Cn4ccnc4)c3)cc2)CC1
1950	220	4800	–	–	–	CC(=O)N1CCN(c2ccc(/C=C/c3cc(O)cc(-n4ccnc4)c3)cc2)CC1
2400	88	51	–	–	–	CC(=O)N1CCN(c2ccc(/C=C/c3cc(O)cc(Cn4ccnc4)c3)cc2)CC1
2870	31	13	–	–	–	O=S(=O)(CCCCl)N1CCN(c2ccc(/C=C/c3cc(Cl)cc(Cn4ccnc4)c3)cc2)CC1
160	9	4	–	–	–	O=[N+]([O-])c1cccc(S(=O)(=O)N2CCN(c3ccc(/C=C/c4cc(Cl)cc(Cn5ccnc5)c4)cc3)CC2)c1
≥ 10000	1200	1400	–	–	–	Oc1cc(/C=C/c2ccc(Br)cc2)cc(-n2ccnc2)c1
1200	21	4	–	–	–	N#Cc1cccc(S(=O)(=O)N2CCN(c3ccc(/C=C/c4cc(Cl)cc(Cn5ccnc5)c4)cc3)CC2)c1
≥ 10000	106	57	–	–	–	O=[N+]([O-])c1cc(S(=O)(=O)N2CCN(c3ccc(/C=C/c4cc(Cl)cc(Cn5ccnc5)c4)cc3)CC2)ccc1Cl
≥ 10000	17	4	–	–	–	O=C(c1cccc([N+](=O)[O-])c1)N1CCN(c2ccc(/C=C/c3cc(Cl)cc(Cn4ccnc4)c3)cc2)CC1
≥ 10000	26	4.9	–	–	–	O=C(c1cccnc1)N1CCN(c2ccc(/C=C/c3cc(Cl)cc(Cn4ccnc4)c3)cc2)CC1

Compound	IC50 [1] [nM]	IC50 [2] [nM]	IC50 [3] [nM]	bioavailability [4] [%]	Tmax [5] [h]	F [4] [%]
CC(=O)N1CCN(c2ccc(CCc3cc(F)cc(-c4ccncc4)c3)cc2)CC1	≥ 10000	21	1.4	–	–	–
